Assay results published in paper PMC6274353, “The Blood-Brain Barrier Permeability of Lignans and Malabaricones from the Seeds of Myristica fragrans in the MDCK-pHaMDR Cell Monolayer Model” (Molecules, 2016).

Experiments:
[1] = bidirectional transport across the MDCK-pHaMDR cell monolayer (in vitro BBB model); conditions: dog, MDCK-MDR1, pH 7.35
Description: (§1) The MDCK-pHaMDR cells were seeded at a density of about 8 × 10^4 cells/mL on the 12-well Transwell® plates. After an eight-day culture, the cells reached confluence and differentiation for the transport study.
(§2) On the 8th day, the monolayers were washed twice and shaken at 55 rpm for 30 min with HBSS at 37 °C. Then, the TEER was measured with an epithelial volt-ohm meter (EVOM; World Precision Instrument) to examine the monolayer's integrity. Only those with the TEER values above 1000 Ω·cm^2 were qualified for the transport.
(§3) The bidirectional transport assay was initiated by adding a test compound to either the apical (0.5 mL for apical to basolateral transport, A→B) or the basolateral (1.5 mL for basolateral to apical transport, B→A) side. After shaking at 55 rpm and 37 °C for a certain time, samples (A→B: 400 µL from the apical side and 1300 µL from the basolateral side; B→A: 450 µL from the apical side and 450 µL from the basolateral side) were collected, immediately frozen, lyophilized and preserved below –20 °C before analysis.
(§4) Papp of each compound was calculated based on the following equation: (1) Papp = (ΔQ/Δt)/(AC0) (cm/s) where ΔQ/Δt is the appearance rate of the test compound at the receiver side (µmol/s), C0 is the initial concentration of the test compound at the donor side (µM), and A is the membrane surface area (cm^2). All of the experiments were conducted in triplicate.

[2] = tested on: MDCK-pHaMDR cell monolayer; assay: as above; conditions: classed by Papp against caffeine and atenolol
Description: as §1, §2, §3, §4

[3] = tested on: P-glycoprotein (P-gp); assay: in vitro; conditions: dog

SMILES	Papp A→B at 90 min, 100 µM [1]	Papp B→A at 90 min, 100 µM [1]	Papp at 90 min, 100 µM [1]	permeability (in words) [2]	Papp [1]	Papp B→A ([3]; MDCK-MDR1)	Papp B→A ([3]; MDCK-MDR1, with verapamil 100 µM)
C/C=C/c1cc(OC)c2c(c1)[C@@H](C)[C@H](c1ccc(O)c(OC)c1)O2 (racemic) [Compound 1, Dehydrodiisoeugenol]	24.3 ± 3.2 nm/s	18.2 ± 1.8 nm/s	~10 nm/s	–	–	–	–
C/C=C/c1cc(OC)c2c(c1)[C@@H](C)[C@H](c1ccc3c(c1)OCO3)O2 [Compound 3, licarin B]	< 0.62 nm/s	< 0.6 nm/s	≤ 0.1 nm/s	very poor permeability	–	–	–
C/C=C/c1cc(OC)c2c(c1)[C@@H](C)[C@H](c1cc(OC)c3c(c1)OCO3)O2 [Compound 4, 3′-methoxylicarin B]	< 0.57 nm/s	< 0.55 nm/s	≤ 0.1 nm/s	very poor permeability	–	–	–
COc1cc([C@H]2O[C@@H](c3ccc(O)c(OC)c3)[C@@H](C)[C@@H]2C)ccc1O [Compound 8, verrucosin]	109 ± 3.2 nm/s	204 ± 9.7 nm/s	–	–	–	–	–
COc1cc([C@H]2O[C@@H](c3ccc(O)c(OC)c3)[C@H](C)[C@@H]2C)ccc1O [Compound 9, nectandrin B]	104 ± 14.9 nm/s	150 ± 12.7 nm/s	–	–	–	–	–
COc1cc(CC(C)C(C)Cc2ccc(O)c(OC)c2)ccc1O (stereo not drawn) [Compound 10, dihydroguaiaretic acid]	< 1.45 nm/s	< 1.4 nm/s	~1 nm/s	–	–	–	–
COc1cc([C@H]2c3cc(O)c(OC)cc3C[C@@H](C)[C@@H]2C)ccc1O [Compound 11, guaiacin]	< 0.75 nm/s	< 0.73 nm/s	≤ 0.1 nm/s	–	–	–	–
COc1cc2c(cc1O)[C@H](c1ccc3c(c1)OCO3)[C@@H](C)[C@H](C)C2 [Compound 12, otobaphenol]	< 0.73 nm/s	< 0.7 nm/s	≤ 0.1 nm/s	–	–	–	–
O=C(CCCCCCCCc1ccccc1)c1c(O)cccc1O [Compound 13, malabaricone A]	< 0.38 nm/s	< 0.37 nm/s	≤ 0.1 nm/s	–	–	–	–
O=C(CCCCCCCCc1ccc(O)c(O)c1)c1c(O)cccc1O [Compound 15, malabaricone C]	6.4 ± 0.7 nm/s	6.3 ± 0.4 nm/s	~1 nm/s	–	–	–	–
Cn1c(=O)c2c(ncn2C)n(C)c1=O [caffeine, reference compound]	–	–	–	–	244 ± 11 nm/s	–	–
COC(=O)c1ccccc1-c1c2ccc(=N)cc-2oc2cc(N)ccc12 [rhodamin 123, rhodamine 123]	–	–	–	–	–	33.1 ± 1.2 nm/s	15.2 ± 0.8 nm/s
